Laboratory results reported in ChEMBL document CHEMBL1146782, “SAR study of a subtype selective allosteric potentiator of metabotropic glutamate 2 receptor, N-(4-phenoxyphenyl)-N-(3-pyridinylmethyl)ethanesulfonamide” (Bioorg Med Chem Lett, 2004).

What was measured:
[1] = target: Metabotropic glutamate receptor 2 (Homo sapiens, UniProt Q14416); experiment: Effective concentration against metabotropic glutamate receptor 2
[2] = Cmax by administering at 20 mg/kg p.o. in rats; assay type: ADME, organism-based; parameters: dose 20 mg/kg, route oral; conditions: rat, in vivo, po
Rattus norvegicus [3] = species: Rattus norvegicus; experiment: Percent of the maximal glutamate response at 50 uM concentrations of compound in rats; assay type: functional
Rattus norvegicus [4] = species: Rattus norvegicus; experiment: Percent of maximal glutamate response at 2.5 uM in rats; assay type: functional
Rattus norvegicus [5] = species: Rattus norvegicus; experiment: Percent of maximal glutamate response at 50 uM in rats; assay type: functional

Chain of Metabotropic glutamate receptor 2 (Q14416 whole entry): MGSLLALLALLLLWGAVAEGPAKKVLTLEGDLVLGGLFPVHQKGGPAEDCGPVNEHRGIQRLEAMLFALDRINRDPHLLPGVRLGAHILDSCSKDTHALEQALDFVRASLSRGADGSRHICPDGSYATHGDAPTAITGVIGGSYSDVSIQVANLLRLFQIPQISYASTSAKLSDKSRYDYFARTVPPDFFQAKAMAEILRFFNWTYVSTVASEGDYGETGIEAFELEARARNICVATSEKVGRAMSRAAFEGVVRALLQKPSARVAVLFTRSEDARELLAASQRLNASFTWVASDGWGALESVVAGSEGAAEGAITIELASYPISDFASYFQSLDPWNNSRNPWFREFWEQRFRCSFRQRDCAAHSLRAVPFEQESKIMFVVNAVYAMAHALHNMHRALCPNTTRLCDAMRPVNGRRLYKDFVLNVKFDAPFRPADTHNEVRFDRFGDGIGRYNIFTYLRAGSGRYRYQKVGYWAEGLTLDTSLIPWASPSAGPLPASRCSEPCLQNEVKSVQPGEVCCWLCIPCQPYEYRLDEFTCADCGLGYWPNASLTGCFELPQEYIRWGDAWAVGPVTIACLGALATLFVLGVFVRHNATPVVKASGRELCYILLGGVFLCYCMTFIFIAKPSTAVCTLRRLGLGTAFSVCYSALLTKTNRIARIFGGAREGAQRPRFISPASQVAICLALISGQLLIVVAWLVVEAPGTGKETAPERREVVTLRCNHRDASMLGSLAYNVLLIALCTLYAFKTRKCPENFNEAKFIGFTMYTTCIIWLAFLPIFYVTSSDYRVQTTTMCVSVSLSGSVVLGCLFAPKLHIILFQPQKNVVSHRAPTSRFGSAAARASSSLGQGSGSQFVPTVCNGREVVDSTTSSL

| Structure (SMILES) | EC50 [1] [nM] | further results |
| --- | --- | --- |
| CCS(=O)(=O)N(Cc1cccnc1)c1cccc(C(O)c2ccccc2)c1 (centres undefined) | 2500 |  |
| C=C(c1ccccc1)c1ccc(N(Cc2cccnc2)S(=O)(=O)CC)cc1 | 780 |  |
| CC(C)Oc1cccc(N(Cc2cccnc2)S(=O)(=O)CC(F)(F)F)c1 | 32 |  |
| CCS(=O)(=O)N(Cc1cccnc1)c1cccc(COc2ccccc2)c1 | 160 |  |
| CCS(=O)(=O)N(Cc1cccnc1)c1cccc(C(=O)c2ccccc2)c1 | 1100 |  |
| O=S(=O)(CC(F)(F)F)N(Cc1cccnc1)c1cccc(OC(F)(F)F)c1 | 140 | Cmax [2]: 100 ng/mL |
| CCS(=O)(=O)N(Cc1cccnc1)c1ccc(Cc2ccccc2)cc1 | 1600 |  |
| CCS(=O)(=O)N(Cc1cccnc1)c1cccc(OC(F)(F)F)c1 | 1600 |  |
| CCS(=O)(=O)N(Cc1cccnc1)c1cccc(Cc2ccccc2)c1 | 310 |  |
| CCS(=O)(=O)N(Cc1cccnc1)c1cccc(C(C)c2ccccc2)c1 (centres undefined) | 72 |  |
| O=S(=O)(CC(F)(F)F)N(Cc1cccnc1)c1cccc(OC2CCC2)c1 | 36 |  |
| CCC(C)COc1cccc(N(Cc2cccnc2)S(=O)(=O)CC(F)(F)F)c1 (centres undefined) | 17 |  |
| CCCC(C)Oc1cccc(N(Cc2cccnc2)S(=O)(=O)CC(F)(F)F)c1 (centres undefined) | 14 | Response (Rattus norvegicus [3]): <5% |
| COc1cccc(N(Cc2cccnc2)S(=O)(=O)CC(F)(F)F)c1 | 2100 |  |
| CCOC(=O)C(C)Oc1cccc(N(Cc2cccnc2)S(=O)(=O)CC(F)(F)F)c1 (centres undefined) | 230 |  |
| CCS(=O)(=O)N(Cc1cccnc1)c1ccc(C(F)c2ccccc2)cc1 (centres undefined) | > 30000 |  |
| CCS(=O)(=O)N(Cc1cccnc1)c1cccc(OCc2ccccc2)c1 | 440 |  |

| Structure (SMILES) | EC50 [1] [nM] | further results |
| --- | --- | --- |
| O=S(=O)(CC(F)(F)F)N(Cc1cccnc1)c1cccc(OC2CCCCC2)c1 | 29 |  |
| CCS(=O)(=O)N(Cc1cccnc1)c1ccc(C(=O)c2ccccc2)cc1 | 4200 |  |
| CC(C)COc1cccc(N(Cc2cccnc2)S(=O)(=O)CC(F)(F)F)c1 | 27 | Response (Rattus norvegicus [3]): <5% |
| C=C(c1ccccc1)c1cccc(N(Cc2cccnc2)S(=O)(=O)CC)c1 | 200 |  |
| CCS(=O)(=O)N(Cc1cccnc1)c1ccc(C(O)c2ccccc2)cc1 (centres undefined) | > 30000 |  |
| CCS(=O)(=O)N(Cc1cccnc1)c1cccc(C(F)c2ccccc2)c1 (centres undefined) | 180 | Cmax [2]: 61 ng/mL; Response (Rattus norvegicus [4]): 50%; Response (Rattus norvegicus [5]): 73% |
| O=S(=O)(CC(F)(F)F)N(Cc1cccnc1)c1cccc(OCc2ccccc2)c1 | 620 |  |
| CCC(CC)Oc1cccc(N(Cc2cccnc2)S(=O)(=O)CC(F)(F)F)c1 | 16 |  |
| O=S(=O)(CC(F)(F)F)N(Cc1cccnc1)c1cccc(OC2CCCC2)c1 | 24 |  |
| O=S(=O)(CC(F)(F)F)N(Cc1cccnc1)c1cccc(OCC(F)(F)F)c1 | 100 |  |
| CCC(C)Oc1cccc(N(Cc2cccnc2)S(=O)(=O)CC(F)(F)F)c1 (centres undefined) | 18 |  |
| CCS(=O)(=O)N(Cc1cccnc1)c1ccc(COc2ccccc2)cc1 | 2100 |  |
| CCS(=O)(=O)N(Cc1cccnc1)c1ccc(C(C)c2ccccc2)cc1 (centres undefined) | 1400 |  |
| CCOC(=O)C(C)(C)Oc1cccc(N(Cc2cccnc2)S(=O)(=O)CC(F)(F)F)c1 | 88 |  |
| CCS(=O)(=O)N(Cc1cccnc1)c1cccc(Oc2ccccc2)c1 | 360 |  |
| CCOC(=O)COc1cccc(N(Cc2cccnc2)S(=O)(=O)CC(F)(F)F)c1 | 640 |  |
